Test results published in patent EP0336356A2, “Derivatives of tryptophan as CCK antagonists” (ABBOTT LABORATORIES, priority 1988, dated 1989).

Key:
CCK receptors [1] = target: T1, CCK receptors (Cavia porcellus, UniProt H0VZC5); assay: [125I]BH-CCK8 radioligand binding, guinea pig cerebral cortical membranes; settings: 30°C for 150 min, read-out: IC₅₀ (nM) [¹²⁵I]-BH-CCK₈ Cortex
T1 construct: cortex and pancreas were removed and rinsed with ice-cold saline; from tissue; host or cells: guinea pig cerebral cortex membranes
T1 sequence (H0VZC5 1-426): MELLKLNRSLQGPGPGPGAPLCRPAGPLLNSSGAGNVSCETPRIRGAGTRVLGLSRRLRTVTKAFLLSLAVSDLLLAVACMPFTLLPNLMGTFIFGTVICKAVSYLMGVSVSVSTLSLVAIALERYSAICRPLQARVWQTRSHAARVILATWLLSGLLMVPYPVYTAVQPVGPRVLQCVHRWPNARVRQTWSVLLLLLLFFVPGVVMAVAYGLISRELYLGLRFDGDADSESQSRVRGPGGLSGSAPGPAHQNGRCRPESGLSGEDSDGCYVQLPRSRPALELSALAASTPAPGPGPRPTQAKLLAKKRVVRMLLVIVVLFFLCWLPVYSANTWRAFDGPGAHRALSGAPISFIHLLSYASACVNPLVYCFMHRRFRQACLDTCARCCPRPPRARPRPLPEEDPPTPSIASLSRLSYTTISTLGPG

CCK receptors [2] = target: T2, CCK receptors (Cavia porcellus, UniProt Q63931); assay: [125I]BH-CCK8 radioligand binding, guinea pig pancreatic membranes; settings: 37°C for 30 min, read-out: IC₅₀ (nM) [¹²⁵I]-BH-CCK₈ Pancreas
T2 construct: cortex and pancreas were removed and rinsed with ice-cold saline; from tissue; host or cells: guinea pig pancreas membranes
T2 sequence (Q63931 1-430): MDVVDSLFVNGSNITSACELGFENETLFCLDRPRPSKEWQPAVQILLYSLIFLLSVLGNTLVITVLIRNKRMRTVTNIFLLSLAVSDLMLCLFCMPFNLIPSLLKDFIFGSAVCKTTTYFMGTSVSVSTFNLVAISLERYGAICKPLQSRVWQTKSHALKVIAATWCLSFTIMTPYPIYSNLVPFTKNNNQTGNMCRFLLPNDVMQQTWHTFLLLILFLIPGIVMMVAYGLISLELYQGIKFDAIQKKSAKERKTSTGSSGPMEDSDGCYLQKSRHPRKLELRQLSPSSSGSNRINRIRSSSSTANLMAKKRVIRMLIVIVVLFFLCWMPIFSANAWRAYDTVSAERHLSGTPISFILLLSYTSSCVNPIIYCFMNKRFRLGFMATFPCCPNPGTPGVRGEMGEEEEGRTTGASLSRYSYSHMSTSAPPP

CCK receptors [3] = target: T2, CCK receptors; assay: Inhibition of CCK8-stimulated amylase release from guinea pig pancreatic acini; assay type: cell-based; settings: reference concentration for CCK₈ 3x10⁻¹⁰M, 37°C, 30 min, read-out: IC₅₀ (nM) Inhibition of Amylase Release
Experimental: This assay was performed using the modified protocol of Lin et al., J. Pharmacol Exp. Ther. 236, 729-734, 1986. Guinea pig acini were prepared by the method of Bruzzone et al. (Biochem. J. 226, 621-624, 1985) as follows. Pancreas was dissected out and connective tissues and blood vessels were removed. […] The composition of the KRH buffer was: HEPES, 12.5 mM: NaCl, 118 mM; […] CaCl₂, 1 mM; KH₂PO₄, 1.2 mM; MgSO₄, 1.2 mM; NaHCO₃, 5 mM; glucose, 10 mM, pH 7.4. The buffer was supplemented with 1% MEM vitamins, 1% MEM amino acids and 0.001% aprotinin. The tube was shaken by hand until the suspension appeared homogeneous, usually 5 to 6 min. 5 mL of the KRH, without collagenase and with 0.1% BSA, were added and the tube was centrifuged at 50 x g for 35 sec. The supernatant was discarded and 6 mL of the KRH were added to the cell pellet. […] This wash procedure was repeated once. The cell pellet from the last centrifugation step was then resuspended in 15 mL of KRH containing 0.1% BSA. The contents were filtered through a dual nylon mesh, size 275 and 75 um. The filtrate, containing the acini, were centrifuged at 50 x g for 3 min. The acini were then resuspended in 5 mL of KRH-BSA buffer for 30 min at 37°C, under 100% O₂, with a change of fresh buffer at 15 min. After the 30 min incubation time, the acini were resuspended in 100 volumes of KRH-BSA buffer, containing 3 uM phosphoramidon and 100 µM bestatin. […] The final assay volume was 500 uL. Tubes were vortexed and placed in a 37°C waterbath, under 100% O₂, for 30 min. Afterward, tubes were centrifuged at 10,000 g for 1 min. Amylase activity in the supernatant and the cell pellet were separately determined after appropriate dilutions in 0.1% Triton X-100, 10 mM NaH₂PO₄, pH 7.4 by Abbott Amylase A-gent test using the Abbott Bichromatic Analyzer 200. […]

CCK receptors [4] = assay: Antagonism of CCK mediated behavioral effect in mice (reversal of CCK-induced inactivity); assay type: in vivo; settings: minimally effective dose, ICV, coadministered with CCK₈ 3 nmol, male Swiss CD-1 mice, statistically significant reversal of CCK-induced inactivity
Text: Male Swiss CD-1 mice (Charles River) (22-27 g) were provided with ample food (Purina Lab (show) and water until the time of their injection with the test compound.
ICV injections were given by a free-hand method similar to that previously described (Haley, and McCormick, Br. J. Pharmacol. Chemother. 12 12-15 (1957)). The animals were placed on a slightly elevated metal grid and restrained by the thumb and forefinger at the level of the shoulders, thus immobilizing their heads. Injections were made with a 30 gauge needle with a "stop" consisting of a piece of tygon tubing to limit penetration of the needle to about 4.5 mm below the surface of the skin. The needle was inserted perpendicular to the skull at a midline point equidistant from thje eye and an equal distance posterior from the level of the eyes such that the injection site and the two eyes form an equilateral triangle. The injection volme (5 ul) was expelled smoothly over a period of approximately 1 second. […]
For the behavioral observations, the mice were placed in clear plastic cages. Each cage measured 19 x 26 x 15 centimeters and contained a 60-tube polypropylene test tube rack (NALGENE #5970-0020) placed on end in the center of the cage to enhance exploratory activity. […] Differences among groups were analyzed by Newman-Kewels analysis and a probability level of p<0.05 was accepted as significant. […]

Row | Structure (SMILES) | IC50 (CCK receptors [1]) | IC50 (CCK receptors [2]) | IC50 (CCK receptors [3]) | MED (CCK receptors [4])
1 | CCCCCN(CCCCC)C(=O)[C@@H](Cc1c[nH]c2ccccc12)NC(=O)c1cnc2ccccc2c1 [Example 21, N-(3′-Quinolylcarbonyl)-R-Tryptophan-di-n-pentylamide] | 15000 nM | 14 nM | 42 nM | 0.3 nmol
2 | CCOC(=O)CN(Cc1ccccc1)C(=O)[C@@H](Cc1c[nH]c2ccccc12)NC(=O)c1cnc2ccccc2c1 [Example 29, Ethyl N-(3′-Quinolylcarbonyl)-R-Tryptophyl-(N-benzyl)Glycinate] | 9200 nM | 88 nM | < 10000 nM | 
3 | COC(=O)[C@H](NC(=O)C(Cc1c[nH]c2ccccc12)NC(=O)c1cnc2ccccc2c1)c1ccccc1 (stereo partly shown) [Example 31, Methyl N-(3′-Quinolylcarbonyl)-Tryptophyl-R-Phenylglycinate] | > 10000 nM | 300 nM | < 100000 nM | 
4 | COC(=O)[C@@H](NC(=O)C(Cc1c[nH]c2ccccc12)NC(=O)c1cnc2ccccc2c1)c1ccccc1 (stereo partly shown) [Example 32, Methyl N-(3′-Quinolylcarbonyl)-Tryptophyl-S-Phenylglycinate] | > 10000 nM | 120 nM | < 30000 nM | 
5 | CN(Cc1ccccc1)C(=O)C(Cc1c[nH]c2ccccc12)NC(=O)c1cnc2ccccc2c1 (stereo not shown) [Example 33, N-(3′-Quinolylcarbonyl)-Tryptophan-(N-methyl,N-benzyl)amide] | 10000 nM | 530 nM | < 30000 nM | 
6 | C[C@H](NC(=O)[C@@H](Cc1c[nH]c2ccccc12)NC(=O)c1cnc2ccccc2c1)c1ccccc1 [Example 36, N-(3′-Quinolylcarbonyl)-R-Tryptophan-(1′,S-phenylethyl)amide] | > 10000 nM | 380 nM | < 10000 nM | 
7 | C[C@@H](NC(=O)[C@@H](Cc1c[nH]c2ccccc12)NC(=O)c1cnc2ccccc2c1)c1ccccc1 [Example 39, N-(3′-Quinolylcarbonyl)-R-Tryptophan-(1′,R-phenylethyl)amide] | > 10000 nM | 110 nM | < 10000 nM | 
8 | O=C(NC(Cc1c[nH]c2ccccc12)C(=O)N1CCC2CCCCC2C1)c1cnc2ccccc2c1 (stereo not shown) [Example 40, N-(3′-Quinolylcarbonyl)-Tryptophan-perhydroisoquinolylamide] | 10000 nM | 1000 nM | < 100000 nM | 
9 | CCCCCN(CCCCC)C(=O)[C@H](Cc1c[nH]c2ccccc12)NC(=O)c1cnc2ccccc2c1 [Example 100, N-(3′-Quinolylcarbonyl)-S-Tryptophan-di-n-pentylamide] | 6300 nM | 670 nM | < 100000 nM | 
